Data from US11504425B2, “Amphiphilic oligodeoxynucleotide conjugates as adjuvant enhancers” (WAYNE STATE UNIVERSITY, priority 2019, dated 2022).
Entries after “also recorded” stand apart in the source; their conditions may differ. Oligonucleotides are written 5' to 3', each unit as a sugar letter and its base; * is a phosphorothioate linkage, no mark a phosphodiester; rarer units and linkages stand in square brackets, end groups in braces. Plain capitals give the bases only. {Lipid} = lipid portion of the amphiphilic conjugate (lipid variable, as described in specification); d = 2'-deoxy (DNA)

Legend:
[1] = target: T1, human TLR8 (hTLR8) (Homo sapiens, UniProt Q9NR97); assay: HEK hTLR8 reporter cells NF-κB/SEAP; format: cell-based; conditions: 1 μg/ml or indicated concentrations TLR8-506 + 1 μM ODN, 24 h
T1 construct: host or cells: HEK-Blue-hTLR8 (HEK293)
T1 sequence (Q9NR97 27-1041): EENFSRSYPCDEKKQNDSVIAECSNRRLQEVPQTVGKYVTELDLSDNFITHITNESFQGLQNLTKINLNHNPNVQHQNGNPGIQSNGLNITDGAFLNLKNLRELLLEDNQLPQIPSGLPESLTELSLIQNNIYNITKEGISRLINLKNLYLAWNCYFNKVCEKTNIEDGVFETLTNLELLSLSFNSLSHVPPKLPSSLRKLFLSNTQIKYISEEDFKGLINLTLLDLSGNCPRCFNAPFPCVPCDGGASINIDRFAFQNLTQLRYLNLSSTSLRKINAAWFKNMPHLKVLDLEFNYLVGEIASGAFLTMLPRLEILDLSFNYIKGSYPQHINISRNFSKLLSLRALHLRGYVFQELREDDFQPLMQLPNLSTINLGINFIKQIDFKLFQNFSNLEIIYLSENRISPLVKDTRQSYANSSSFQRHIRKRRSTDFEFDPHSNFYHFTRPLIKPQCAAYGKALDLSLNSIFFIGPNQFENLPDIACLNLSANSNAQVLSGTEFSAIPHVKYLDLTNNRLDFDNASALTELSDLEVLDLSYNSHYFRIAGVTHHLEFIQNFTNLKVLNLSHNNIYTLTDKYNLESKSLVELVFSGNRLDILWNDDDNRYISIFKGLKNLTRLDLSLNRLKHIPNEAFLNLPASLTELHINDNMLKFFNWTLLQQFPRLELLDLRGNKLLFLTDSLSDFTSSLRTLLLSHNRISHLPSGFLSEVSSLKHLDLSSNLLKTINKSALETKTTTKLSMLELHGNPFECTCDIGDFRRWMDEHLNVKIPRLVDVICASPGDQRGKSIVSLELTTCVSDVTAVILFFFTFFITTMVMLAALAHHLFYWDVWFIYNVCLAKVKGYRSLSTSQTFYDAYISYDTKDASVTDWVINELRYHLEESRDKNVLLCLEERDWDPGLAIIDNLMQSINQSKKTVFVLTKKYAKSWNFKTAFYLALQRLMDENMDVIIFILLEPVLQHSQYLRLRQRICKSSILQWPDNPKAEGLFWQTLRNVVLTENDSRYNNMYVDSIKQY
Description: (§1) HEK-Blue™-mTLR7, mTLR8, hTLR7, hTLR8, and RAW-Blue™ cells were purchased from InvivoGen and were used to evaluate bioactivities of lipo ODNs and TLR 7/8 ligands in vitro. All these cell lines were cultured with DMEM supplemented with 10% FBS, 1% P/S and 100 μg/mL Normocin at 37° C. with 5% CO2. […] After incubating for 24 h, SEAP levels were quantified by developing supernatants with QuantiBlue™ substrate for 1 h and reading absorption at 620 nm, following manufacturer's instructions.
(§2) HEK293 cells transfected with human TLR7 or 8 were used. The cells were stimulated with IMQ in the presence of several inhibitory oligonucleotides reported in the literature. […] In contrast, all the unmodified ODNs maintained their inhibitory function, reducing the NF-κB secretion to basal levels (FIG. 8A). We then plotted the IMQ dose response curve in human TLR-7 transfected HEK293 cells.

[2] = target: T2, human TLR7 (hTLR7) (Homo sapiens, UniProt Q9NYK1); assay: HEK hTLR7 reporter cells NF-κB/SEAP; format: cell-based; conditions: 2 μM IMQ + 1 μM ODN, 24 h
T2 construct: host or cells: HEK-Blue-hTLR7 (HEK293)
T2 sequence (Q9NYK1 27-1049): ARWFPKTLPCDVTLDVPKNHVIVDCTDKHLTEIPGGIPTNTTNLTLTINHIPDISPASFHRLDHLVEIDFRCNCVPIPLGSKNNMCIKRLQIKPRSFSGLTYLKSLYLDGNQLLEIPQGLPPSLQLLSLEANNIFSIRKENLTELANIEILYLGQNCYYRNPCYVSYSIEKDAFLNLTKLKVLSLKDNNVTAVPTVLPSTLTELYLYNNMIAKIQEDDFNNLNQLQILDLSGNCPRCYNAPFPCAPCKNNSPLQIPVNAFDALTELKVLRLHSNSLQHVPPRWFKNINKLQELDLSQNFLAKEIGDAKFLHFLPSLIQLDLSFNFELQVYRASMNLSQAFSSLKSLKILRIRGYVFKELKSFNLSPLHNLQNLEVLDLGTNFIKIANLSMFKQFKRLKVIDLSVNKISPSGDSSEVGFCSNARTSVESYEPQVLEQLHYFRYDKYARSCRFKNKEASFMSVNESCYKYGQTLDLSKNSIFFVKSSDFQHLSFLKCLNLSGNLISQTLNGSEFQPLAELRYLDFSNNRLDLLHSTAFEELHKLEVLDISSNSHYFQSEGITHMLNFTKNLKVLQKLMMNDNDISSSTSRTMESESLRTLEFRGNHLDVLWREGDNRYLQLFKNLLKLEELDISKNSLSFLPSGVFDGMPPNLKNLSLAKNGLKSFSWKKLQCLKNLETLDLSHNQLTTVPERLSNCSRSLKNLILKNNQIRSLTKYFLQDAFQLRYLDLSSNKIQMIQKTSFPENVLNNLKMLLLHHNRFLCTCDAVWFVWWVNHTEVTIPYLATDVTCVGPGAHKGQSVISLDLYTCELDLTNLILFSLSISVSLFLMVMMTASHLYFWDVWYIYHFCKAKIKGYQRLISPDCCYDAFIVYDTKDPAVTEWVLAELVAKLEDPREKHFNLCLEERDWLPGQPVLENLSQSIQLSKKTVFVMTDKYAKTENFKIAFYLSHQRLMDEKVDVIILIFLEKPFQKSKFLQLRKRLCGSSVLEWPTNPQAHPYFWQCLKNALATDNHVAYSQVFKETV
Description: as §1, §2

[3] = tested on: TLR7-mediated NF-κB activation in Raw-Blue reporter cells; assay: Raw-Blue NF-κB/SEAP reporter stimulation with TLR7 ligands; format: cell-based, murine; conditions: for IMQ-induced NF-κB activation (SEAP) in the presence of the ODN: 2 μM IMQ + 1 μM ODN, FBS-supplemented medium
Description: as §1
Following subcutaneous injection, lipid-modified oligonucleotides efficiently accumulated in the draining lymph nodes by binding and trafficking with endogenous albumin protein (Liu et al., Nature 507, 519-522, 2014; Yu et al., Pharmaceutical Res. 35: 56, 2018). Inspired by that prior work, the current study was aimed to take advantage of lipid functionalization in other oligonucleotide-based TLR inhibitors to further expand the pool of lipo suppressive ODNs. The therapeutic efficacy of lipid-modified IRS 954 in suppressing TLR7-mediated immune activation and alleviating the severity of SLE was investigated. Imiquimod (IMQ; FIG. 1A) was first used to stimulate TLR7-mediated immune activation in Raw-Blue reporter cells. For the initial experiments, Raw Blue cells-a murine RAW 264.7 macrophage cell line which expresses secreted embryonic alkaline phosphatase (SEAP) under the control of an NF-κB and AP-1, were used. Raw Blue cells express many toll-like receptors, including TLR-7, TLR-8, and TLR-9. The immunosuppressive capability of unmodified or lipo IRS 954 was determined by quantifying the level of TLR7-induced NF-κB activation.

[4] = target: T3, mouse TLR7 (mTLR7) (Mus musculus, UniProt P58681); assay: HEK mTLR7 reporter cells NF-κB/SEAP; format: cell-based; conditions: soluble ligand alone, 24 h
T3 construct: host or cells: HEK-Blue-mTLR7 (HEK293)
T3 sequence (P58681 27-1050): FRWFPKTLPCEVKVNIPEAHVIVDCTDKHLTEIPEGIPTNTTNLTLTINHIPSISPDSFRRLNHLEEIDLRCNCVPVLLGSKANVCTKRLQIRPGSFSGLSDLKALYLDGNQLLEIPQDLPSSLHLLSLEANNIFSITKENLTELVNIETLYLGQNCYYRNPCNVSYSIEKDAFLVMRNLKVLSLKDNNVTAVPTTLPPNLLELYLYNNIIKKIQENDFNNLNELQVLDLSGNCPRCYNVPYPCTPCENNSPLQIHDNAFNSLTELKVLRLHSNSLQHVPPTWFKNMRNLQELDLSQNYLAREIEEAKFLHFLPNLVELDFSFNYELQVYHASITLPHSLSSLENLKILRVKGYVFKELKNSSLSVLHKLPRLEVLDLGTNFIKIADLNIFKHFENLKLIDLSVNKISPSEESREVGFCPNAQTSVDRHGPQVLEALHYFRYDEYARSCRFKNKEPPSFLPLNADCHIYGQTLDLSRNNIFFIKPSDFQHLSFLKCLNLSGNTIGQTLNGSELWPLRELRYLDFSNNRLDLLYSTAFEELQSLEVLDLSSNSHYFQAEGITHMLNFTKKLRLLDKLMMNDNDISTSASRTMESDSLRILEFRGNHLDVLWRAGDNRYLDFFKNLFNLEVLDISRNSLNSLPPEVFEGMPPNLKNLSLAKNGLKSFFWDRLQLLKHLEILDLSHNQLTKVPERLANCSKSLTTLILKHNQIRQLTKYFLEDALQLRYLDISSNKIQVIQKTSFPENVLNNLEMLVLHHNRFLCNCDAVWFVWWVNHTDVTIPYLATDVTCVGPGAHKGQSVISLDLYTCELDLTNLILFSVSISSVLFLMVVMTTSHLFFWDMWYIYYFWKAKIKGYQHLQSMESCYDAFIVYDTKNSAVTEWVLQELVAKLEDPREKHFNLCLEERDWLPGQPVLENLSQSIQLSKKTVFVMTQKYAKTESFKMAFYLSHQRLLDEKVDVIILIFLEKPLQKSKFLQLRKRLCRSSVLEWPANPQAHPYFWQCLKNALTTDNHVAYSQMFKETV
Description: as §1
Raw Blue cells which respond to both murine TLR-7 and TLR-8 are also included to assess the overall modulatory effect. half-maximal effective concentration (EC50) and potency of several classic TLR7/8 ligands were evaluated in murine TLR7 and TLR8 reporter cells.

Molecule | TLR8-506 stimulation of hTLR8 cells in the presence of the ODN [1] | IMQ-mediated NF-κB stimulation in hTLR7 cells in the presence of the ODN [2] | IMQ-induced NF-κB activation (SEAP) in the presence of the ODN ([3]; 24 h) | activity of the ODN alone in Raw Blue cells ([3]; without IMQ) | mTLR7 activation by the ligand alone [4] | NF-κB activation of Raw Blue cells by the ligand alone ([3]; ligand alone, 24 h)
lipo ODN 2087: lipid modified ODN 2087 (5′-TCCTGAGCTTGAAGT-3′) (DNA {Lipid}-dT*dC*dC*dT*dG*dA*dG*dC*dT*dT*dG*dA*dA*dG*dT) | partially inhibited the TLR-8 signaling | markedly enhanced IMQ-mediated NF-κB stimulation | – | – | – | –
5′-TGCTCCTGGAGGGGTTGT-3′ (DNA dT*dG*dC*dT*dC*dC*dT*dG*dG*dA*dG*dG*dG*dG*dT*dT*dG*dT) [IRS 954] | – | – | no detectable NF-κB was observed | – | – | –
5′-L-TGCTCCTGGAGGGGTTGT-3′ (DNA NTGCTCCTGGAGGGGTTGT; 5' lipid modification; Lipid-modified synthetic oligonucleotide; (1)..(1) n=placeholder indicative of lipid portion of conjugate, as described in specification; lipid is variable, depending on embodiment(s)) [lipo IRS 954] | partially inhibited the TLR-8 signaling | markedly enhanced IMQ-mediated NF-κB stimulation | enhanced TLR7-mediated activation; also recorded: more than twofold increase in TLR-7-mediated activation | no activity | – | –
CC(C)Cn1cnc2c(N)nc3ccccc3c21 [IMQ, imiquimod] | – | – | – | – | activated mTLR-7 at different concentrations | resulted in secretion of NF-κB
